Data published in ChEMBL document CHEMBL5291721, “A preclinical secondary pharmacology resource illuminates target-adverse drug reaction associations of marketed drugs” (Nat Commun, 2023).

How the values were obtained:
[1] = molecular target: T1, Alpha-2A adrenergic receptor (Homo sapiens, UniProt P08913); type: functional, cell-based
T1 sequence (P08913 whole entry): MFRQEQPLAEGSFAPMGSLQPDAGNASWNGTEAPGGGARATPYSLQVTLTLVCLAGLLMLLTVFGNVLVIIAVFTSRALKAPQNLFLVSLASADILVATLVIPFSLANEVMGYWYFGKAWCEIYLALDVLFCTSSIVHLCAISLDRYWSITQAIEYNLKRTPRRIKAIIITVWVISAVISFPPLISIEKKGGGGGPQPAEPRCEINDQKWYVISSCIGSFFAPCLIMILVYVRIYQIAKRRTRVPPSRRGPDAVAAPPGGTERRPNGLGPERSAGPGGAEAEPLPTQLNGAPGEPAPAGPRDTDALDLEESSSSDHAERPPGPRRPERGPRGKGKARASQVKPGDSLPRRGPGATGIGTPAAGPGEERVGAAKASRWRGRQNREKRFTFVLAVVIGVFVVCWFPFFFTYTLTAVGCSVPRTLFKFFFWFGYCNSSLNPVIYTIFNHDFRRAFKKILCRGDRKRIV

[2] = molecular target: T2, 5-hydroxytryptamine receptor 3A (Homo sapiens, UniProt P46098); type: functional
T2 sequence (P46098 whole entry): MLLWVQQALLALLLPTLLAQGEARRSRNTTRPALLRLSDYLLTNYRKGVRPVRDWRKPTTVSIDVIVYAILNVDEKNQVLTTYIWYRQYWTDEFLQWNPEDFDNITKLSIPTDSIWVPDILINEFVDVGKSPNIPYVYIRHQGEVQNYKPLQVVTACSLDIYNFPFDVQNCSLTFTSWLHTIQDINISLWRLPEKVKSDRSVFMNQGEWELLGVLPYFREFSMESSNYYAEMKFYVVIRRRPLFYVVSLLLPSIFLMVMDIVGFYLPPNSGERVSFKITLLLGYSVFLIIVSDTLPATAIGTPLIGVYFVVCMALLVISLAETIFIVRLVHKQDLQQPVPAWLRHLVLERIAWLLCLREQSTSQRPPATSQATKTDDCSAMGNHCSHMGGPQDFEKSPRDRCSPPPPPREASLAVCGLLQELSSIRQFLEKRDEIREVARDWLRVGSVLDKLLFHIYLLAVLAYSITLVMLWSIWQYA

Vasopressin V1a receptor = Vasopressin V1a receptor (Homo sapiens, UniProt P37288)
[3] = molecular target: T3, Muscarinic acetylcholine receptor M1 (Homo sapiens, UniProt P11229); type: functional
T3 sequence (P11229 whole entry): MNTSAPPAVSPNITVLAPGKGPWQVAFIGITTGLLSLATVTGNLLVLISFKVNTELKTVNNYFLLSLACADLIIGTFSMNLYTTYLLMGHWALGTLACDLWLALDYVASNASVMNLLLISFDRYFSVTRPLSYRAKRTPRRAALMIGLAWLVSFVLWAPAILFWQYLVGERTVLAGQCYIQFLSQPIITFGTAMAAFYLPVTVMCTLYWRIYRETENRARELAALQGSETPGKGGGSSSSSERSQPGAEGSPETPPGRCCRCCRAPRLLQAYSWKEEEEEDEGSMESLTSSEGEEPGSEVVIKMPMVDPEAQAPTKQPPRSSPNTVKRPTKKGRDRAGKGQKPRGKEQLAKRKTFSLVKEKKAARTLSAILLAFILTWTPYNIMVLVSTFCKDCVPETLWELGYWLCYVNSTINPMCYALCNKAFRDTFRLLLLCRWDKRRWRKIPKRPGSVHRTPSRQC

[4] = molecular target: Sodium-dependent noradrenaline transporter (Homo sapiens, UniProt P23975)
Adenosine receptor A2a = Adenosine receptor A2a (Homo sapiens, UniProt P29274)
[5] = molecular target: Sodium-dependent dopamine transporter (Homo sapiens, UniProt Q01959)
Glucocorticoid receptor = molecular target: T4, Glucocorticoid receptor (Homo sapiens, UniProt P04150)
T4 sequence (P04150 whole entry): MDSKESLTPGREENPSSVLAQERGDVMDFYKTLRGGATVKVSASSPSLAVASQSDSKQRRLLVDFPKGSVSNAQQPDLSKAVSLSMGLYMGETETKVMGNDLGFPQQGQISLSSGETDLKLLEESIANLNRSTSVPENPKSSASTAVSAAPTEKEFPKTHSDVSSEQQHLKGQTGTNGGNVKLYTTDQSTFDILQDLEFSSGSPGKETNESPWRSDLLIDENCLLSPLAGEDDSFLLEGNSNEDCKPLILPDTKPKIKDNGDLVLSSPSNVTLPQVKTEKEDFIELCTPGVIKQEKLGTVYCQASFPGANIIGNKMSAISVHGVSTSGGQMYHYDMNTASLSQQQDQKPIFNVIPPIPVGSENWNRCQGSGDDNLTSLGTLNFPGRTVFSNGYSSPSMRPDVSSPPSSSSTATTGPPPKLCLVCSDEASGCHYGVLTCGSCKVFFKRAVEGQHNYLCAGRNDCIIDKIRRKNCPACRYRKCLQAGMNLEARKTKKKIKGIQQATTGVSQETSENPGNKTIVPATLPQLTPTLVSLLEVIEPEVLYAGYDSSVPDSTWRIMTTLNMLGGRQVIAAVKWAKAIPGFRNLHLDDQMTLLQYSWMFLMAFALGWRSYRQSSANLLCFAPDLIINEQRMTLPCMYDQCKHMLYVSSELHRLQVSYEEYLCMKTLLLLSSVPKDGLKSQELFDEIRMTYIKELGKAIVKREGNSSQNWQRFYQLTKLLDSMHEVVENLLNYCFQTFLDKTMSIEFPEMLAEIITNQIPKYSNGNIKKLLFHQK

Histamine H1 receptor = Histamine H1 receptor (Homo sapiens, UniProt P35367)
D(1A) dopamine receptor = D(1A) dopamine receptor (Homo sapiens, UniProt P21728); type: functional, cell-based
Note: assay procedure not described here.

Chain of Sodium-dependent noradrenaline transporter (P23975 whole entry): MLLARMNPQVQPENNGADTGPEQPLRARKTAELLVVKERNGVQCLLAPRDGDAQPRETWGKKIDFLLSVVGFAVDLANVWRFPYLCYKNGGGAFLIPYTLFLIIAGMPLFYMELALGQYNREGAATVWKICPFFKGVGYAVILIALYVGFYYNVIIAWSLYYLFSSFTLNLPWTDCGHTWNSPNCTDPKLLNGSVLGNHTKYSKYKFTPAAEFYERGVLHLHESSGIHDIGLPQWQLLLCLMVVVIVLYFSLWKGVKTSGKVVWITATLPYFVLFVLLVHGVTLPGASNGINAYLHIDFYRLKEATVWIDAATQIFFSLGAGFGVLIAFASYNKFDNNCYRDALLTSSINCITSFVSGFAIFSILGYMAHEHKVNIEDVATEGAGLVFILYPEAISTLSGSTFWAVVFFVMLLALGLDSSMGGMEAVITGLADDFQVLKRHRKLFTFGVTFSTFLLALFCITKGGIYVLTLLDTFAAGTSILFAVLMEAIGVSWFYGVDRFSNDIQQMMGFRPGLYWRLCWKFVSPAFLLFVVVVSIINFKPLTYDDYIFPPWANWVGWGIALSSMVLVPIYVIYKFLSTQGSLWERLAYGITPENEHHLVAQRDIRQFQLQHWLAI
Chain of Histamine H1 receptor (P35367 whole entry): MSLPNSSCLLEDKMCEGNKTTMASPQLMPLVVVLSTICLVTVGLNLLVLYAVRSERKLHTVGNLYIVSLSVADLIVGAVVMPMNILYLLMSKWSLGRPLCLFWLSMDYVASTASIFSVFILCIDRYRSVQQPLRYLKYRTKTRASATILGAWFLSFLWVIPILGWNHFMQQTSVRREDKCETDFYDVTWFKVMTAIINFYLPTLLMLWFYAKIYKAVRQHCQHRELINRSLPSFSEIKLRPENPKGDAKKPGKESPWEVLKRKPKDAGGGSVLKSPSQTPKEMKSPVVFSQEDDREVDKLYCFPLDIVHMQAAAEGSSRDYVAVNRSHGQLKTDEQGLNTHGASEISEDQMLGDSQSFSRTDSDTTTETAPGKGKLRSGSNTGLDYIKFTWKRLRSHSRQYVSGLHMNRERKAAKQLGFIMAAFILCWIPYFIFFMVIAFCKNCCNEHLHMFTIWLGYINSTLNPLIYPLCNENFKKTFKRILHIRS
Chain of Vasopressin V1a receptor (P37288 whole entry): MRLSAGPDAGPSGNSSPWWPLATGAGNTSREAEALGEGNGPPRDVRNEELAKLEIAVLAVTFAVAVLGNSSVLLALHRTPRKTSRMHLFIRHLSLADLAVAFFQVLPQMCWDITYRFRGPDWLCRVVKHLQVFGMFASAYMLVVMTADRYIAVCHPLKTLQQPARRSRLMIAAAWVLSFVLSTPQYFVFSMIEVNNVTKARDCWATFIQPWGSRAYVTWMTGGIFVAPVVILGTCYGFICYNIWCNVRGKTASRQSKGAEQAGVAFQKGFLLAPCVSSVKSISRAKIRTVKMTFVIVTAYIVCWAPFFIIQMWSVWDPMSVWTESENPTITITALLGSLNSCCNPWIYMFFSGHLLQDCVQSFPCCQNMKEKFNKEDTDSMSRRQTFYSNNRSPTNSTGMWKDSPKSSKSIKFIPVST
Chain of D(1A) dopamine receptor (P21728 whole entry): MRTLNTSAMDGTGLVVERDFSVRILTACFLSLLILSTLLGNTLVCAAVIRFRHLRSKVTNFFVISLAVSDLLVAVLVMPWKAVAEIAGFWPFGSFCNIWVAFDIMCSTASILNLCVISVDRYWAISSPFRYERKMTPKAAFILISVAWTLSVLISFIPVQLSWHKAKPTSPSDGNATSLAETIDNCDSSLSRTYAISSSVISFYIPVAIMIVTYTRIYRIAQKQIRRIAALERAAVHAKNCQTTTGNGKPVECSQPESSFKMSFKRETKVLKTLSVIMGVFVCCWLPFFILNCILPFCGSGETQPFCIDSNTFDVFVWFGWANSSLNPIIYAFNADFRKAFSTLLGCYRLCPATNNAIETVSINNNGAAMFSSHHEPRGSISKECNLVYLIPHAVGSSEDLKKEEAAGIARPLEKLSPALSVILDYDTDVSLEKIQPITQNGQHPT
Chain of Sodium-dependent dopamine transporter (Q01959 whole entry): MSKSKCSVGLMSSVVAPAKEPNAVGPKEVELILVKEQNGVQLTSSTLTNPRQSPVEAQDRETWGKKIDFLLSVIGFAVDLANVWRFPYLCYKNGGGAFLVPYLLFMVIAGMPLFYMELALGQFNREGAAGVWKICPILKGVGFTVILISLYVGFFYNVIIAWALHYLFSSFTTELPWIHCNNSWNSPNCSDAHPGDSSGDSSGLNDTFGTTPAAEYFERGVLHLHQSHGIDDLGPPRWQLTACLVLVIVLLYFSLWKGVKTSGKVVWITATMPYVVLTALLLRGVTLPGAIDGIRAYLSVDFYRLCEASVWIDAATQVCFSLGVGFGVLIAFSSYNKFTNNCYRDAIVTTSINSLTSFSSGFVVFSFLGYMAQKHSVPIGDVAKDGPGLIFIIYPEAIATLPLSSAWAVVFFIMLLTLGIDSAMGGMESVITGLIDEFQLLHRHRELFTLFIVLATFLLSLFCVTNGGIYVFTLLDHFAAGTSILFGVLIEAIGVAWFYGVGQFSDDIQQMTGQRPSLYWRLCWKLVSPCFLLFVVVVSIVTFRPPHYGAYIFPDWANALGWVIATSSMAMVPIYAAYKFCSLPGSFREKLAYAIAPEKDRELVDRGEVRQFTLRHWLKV
Chain of Adenosine receptor A2a (P29274 whole entry): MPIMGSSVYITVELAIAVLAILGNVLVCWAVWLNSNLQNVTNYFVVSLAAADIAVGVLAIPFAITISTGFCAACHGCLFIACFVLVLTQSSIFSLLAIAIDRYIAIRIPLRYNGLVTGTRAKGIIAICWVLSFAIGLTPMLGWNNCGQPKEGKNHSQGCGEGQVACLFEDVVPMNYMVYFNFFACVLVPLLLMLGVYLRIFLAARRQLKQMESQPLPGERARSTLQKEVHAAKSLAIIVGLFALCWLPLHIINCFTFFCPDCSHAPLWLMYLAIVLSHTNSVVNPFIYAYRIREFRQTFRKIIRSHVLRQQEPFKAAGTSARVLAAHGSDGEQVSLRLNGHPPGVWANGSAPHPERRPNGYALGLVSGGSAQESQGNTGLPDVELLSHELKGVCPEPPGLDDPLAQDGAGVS

Row | Compound | AC50 [1] | AC50 [2] | AC50 (Vasopressin V1a receptor) | AC50 [3] | AC50 [4] | AC50 (Adenosine receptor A2a) | AC50 [5] | AC50 (Glucocorticoid receptor) | AC50 (Histamine H1 receptor) | AC50 (D(1A) dopamine receptor)
1 | O=C(C[S+]([O-])Cc1ccco1)NC/C=C\COc1cc(CN2CCCCC2)ccn1 (stereo not given) [LAFUTIDINE] | > 10 µM | > 30 µM | > 10 µM | > 10 µM | > 10 µM | > 10 µM | > 10 µM | > 10 µM | > 10 µM | > 10 µM
2 | CO/N=C(\C(=O)N[C@@H]1C(=O)N2C(C(=O)O)=C(CSc3nc(C)c(CC(=O)O)s3)CS[C@H]12)c1csc(N)n1 [CEFODIZIME] | > 30 µM | > 30 µM | > 30 µM | > 30 µM | > 30 µM | > 30 µM | > 30 µM | > 30 µM | > 30 µM | > 30 µM
3 | CCN1C(=O)NC(c2ccccc2)C1=O (stereo not given) [ETHOTOIN] | > 30 µM | > 30 µM | > 30 µM | > 30 µM | > 30 µM | > 30 µM | > 30 µM | > 30 µM | > 30 µM | > 30 µM
4 | OCC(CO)N[C@H]1C[C@](O)(CO)[C@@H](O)[C@H](O)[C@H]1O [VOGLIBOSE] | > 30 µM | > 30 µM | > 30 µM | > 30 µM | > 30 µM | > 30 µM | > 30 µM | > 30 µM | > 30 µM | > 30 µM
5 | CCCO[C@H]1[C@@H]([C@@H](COCc2ccc(Cl)cc2)OCc2ccc(Cl)cc2)OC(OCC)[C@@H]1O (stereo not given in full) [CLOBENOSIDE] | > 30 µM | > 30 µM | > 30 µM | > 30 µM | > 30 µM | > 30 µM | > 30 µM | > 30 µM | > 30 µM | > 30 µM
6 | COC(=O)c1ccc2c(c1)NC(=O)/C2=C(\Nc1ccc(N(C)C(=O)CN2CCN(C)CC2)cc1)c1ccccc1 [NINTEDANIB] | > 30 µM | > 30 µM | > 30 µM | > 30 µM | > 30 µM | 21 µM | > 30 µM | > 30 µM | > 30 µM | > 30 µM
7 | Cc1cnc(Nc2ccc(OCCN3CCCC3)cc2)nc1Nc1cccc(S(=O)(=O)NC(C)(C)C)c1 [FEDRATINIB] | > 10 µM | > 30 µM | > 30 µM | 1.2 µM | 0.24 µM | 3.75 µM | 0.08 µM | > 30 µM | > 10 µM | > 10 µM
8 | CN(C)CCOCC(=O)NC12CC3CC(CC(C3)C1)C2 [TROMANTADINE] | > 30 µM | > 30 µM | > 30 µM | > 30 µM | > 30 µM | > 30 µM | > 30 µM | > 30 µM | > 30 µM | > 30 µM
9 | CC(C)(N)Cc1ccccc1 [PHENTERMINE] | > 10 µM | > 30 µM | > 30 µM | > 10 µM | 5.73 µM | > 30 µM | > 30 µM | > 30 µM | > 10 µM | > 10 µM
10 | OCC(O)COc1ccc(Cl)cc1 (stereo not given) | > 10 µM | > 30 µM | > 10 µM | > 10 µM | > 10 µM | > 10 µM | > 10 µM | > 10 µM | > 10 µM | > 10 µM
11 | CCN(CC)CCCN(c1ccccc1)C1Cc2ccccc2C1 [APRINDINE] | > 30 µM | > 30 µM | > 30 µM | 14.5 µM | 2.3 µM | > 30 µM | 11.6 µM | > 30 µM | 1.18 µM | > 30 µM
12 | CC1=C(C(=O)O)N2C(=O)[C@@H](NC(=O)[C@H](N)C3=CCC=CC3)[C@H]2SC1 [CEPHRADINE] | > 30 µM | > 30 µM | > 30 µM | > 30 µM | > 30 µM | > 30 µM | > 30 µM | > 30 µM | > 30 µM | > 30 µM
13 | CN1C(=O)CN=C(c2ccccc2F)c2cc([N+](=O)[O-])ccc21 [FLUNITRAZEPAM] | > 10 µM | > 10 µM | > 10 µM | > 10 µM | > 10 µM | > 30 µM | > 10 µM | > 30 µM | > 10 µM | > 10 µM
14 | CCN(CC)Cc1nccn1-c1ccc([N+](=O)[O-])cc1C(=O)c1ccccc1Cl [NIZOFENONE] | > 30 µM | > 30 µM | > 30 µM | > 30 µM | > 30 µM | > 30 µM | > 30 µM | > 30 µM | > 30 µM | > 30 µM
15 | CCC1(CC)C(=O)NC(=O)N(C)C1=O [METHARBITAL] | > 10 µM | > 30 µM | > 10 µM | > 10 µM | > 10 µM | > 10 µM | > 10 µM | > 10 µM | > 10 µM | > 10 µM
16 | C[C@@H](Cc1ccccc1)N(C)Cc1ccccc1 [BENZPHETAMINE] | > 10 µM | > 30 µM | > 10 µM | > 10 µM | 0.036 µM | > 10 µM | 9.9 µM | > 10 µM | > 10 µM | > 10 µM
17 | O=C(O)c1nn(Cc2ccc(Cl)cc2Cl)c2ccccc12 [LONIDAMINE] | > 30 µM | > 30 µM | > 30 µM | > 30 µM | > 30 µM | > 30 µM | > 30 µM | > 30 µM | > 30 µM | > 30 µM
18 | Oc1cc(O)c2c(c1)O[C@H](c1ccc(O)c(O)c1)[C@@H](O)C2 [CIANIDANOL] | > 10 µM | > 30 µM | > 30 µM | > 10 µM | > 30 µM | > 30 µM | > 30 µM | > 30 µM | > 10 µM | > 10 µM
